According to US6407097B1, “Methoximinomethyloxathiazines” (Bayer Aktiengesellschaft, priority 1998, dated 2002):

Test system: Sphaerotheca fuliginea
Assay: Sphaerotheca test (cucumber)/protective
Assay type: in vivo
Details: protective, application rate 100 g/ha, evaluation 10 days after inoculation
Description: Sphaerotheca test (cucumber)/protective Solvent: 47 parts by weight of acetone Emulsifier: 3 parts by weight of alkylaryl polyglycol ether To produce a suitable preparation of active compound, 1 part by weight of active compound is mixed with the stated amounts of solvent and emulsifier, and the concentrate is diluted with water to the desired concentration. To test for protective activity, young plants are sprayed with the preparation of active compound at the stated application rate. After the spray coating has dried on, the plants are inoculated with an aqueous spore suspension of Sphaerotheca fuliginea. The plants are then placed in a greenhouse at approximately 23° C. and a relative atmospheric humidity of approximately 70%. Evaluation is carried out 10 days after the inoculation. 0% means an efficacy which corresponds to that of the control, whereas an efficacy of 100% means that no infection is observed.

In the case of `CON=C(C1=NOCCS1)c1ccccc1Oc1ncnc(Oc2ccccc2)c1F` [Example 1, (5,6-dihydro-[1,4,2]-oxathiazin-3-yl)-2-[(5-fluoro-6-phenoxy-pyrimidine-4-yloxy)-phenyl]-methanone O-methyloxime], the efficacy is reported as no less than 90%.

Test system: not listed separately
Assay: logP by HPLC (EEC directive 79/831 Annex V. A8, gradient method)
Assay type: physicochemical
Details: starting materials/intermediates, read-out: HPLC: log P

`CON=C1C(=NOCCSC(C)=O)Oc2ccccc21` (single isomer, unassigned) [VI-1 Isomer B, S-[2-(3-methoxyimino-3H-benzofuran-2-ylideneaminooxy)-ethyl]thioacetate] and `CON=C1C(=NOCCBr)Oc2ccccc21` (single isomer, unassigned) [VII-1 Isomer A, benzofuran-2,3-dione 2-[O-(2-bromoethyl)-oxime] 3-(O-methyloxime)] are within 0.2 log units of each other in chromatographic logP: 3.18 for the first, 3.08 for the second.

Going from `CON=C1C(=NOCCSC(C)=O)Oc2ccccc21` (single isomer, unassigned) [VI-1 Isomer A, S-[2-(3-methoxyimino-3H-benzofuran-2-ylideneaminooxy)-ethyl]thioacetate] to `CON=C1C(=NOCCBr)Oc2ccccc21` (single isomer, unassigned) [VII-1 Isomer B, benzofuran-2,3-dione 2-[O-(2-bromoethyl)-oxime] 3-(O-methyloxime)], the chromatographic logP rises from 3.01 to 3.23.

First: CON=C(C1=NOCCS1)c1ccccc1Oc1ncnc(F)c1F [IV-1, [2-(5,6-difluoro-pyrimidine-4-yloxy)-phenyl]-(5,6-dihydro-[1,4,2]oxathiazin-3-yl)-methanone O-methyloxime]
Second: CON=C(C1=NOCCS1)c1ccccc1O [II-1, (5,6-dihydro-[1,4,2]oxathiazin-3-yl)-(2-hydroxyphenyl)-methanone O-methyloxime]
The chromatographic logP of the first is higher: 2.8 for the first, 1.75 for the second.
